From ChEMBL document CHEMBL1201862, “PubChem BioAssay data set” (2004)
Calls of active or inactive are those of the source.

Experiments:
[1] = biological target: T1, Microphthalmia-associated transcription factor (Homo sapiens, UniProt O75030); experiment: TRPM1 promoter luciferase signal decrease, dose response, MITF inhibitor project, cell-based, SK-MEL-5, cherry-picked, set 3 (AID 493073); format: functional
T1 sequence (O75030 whole entry): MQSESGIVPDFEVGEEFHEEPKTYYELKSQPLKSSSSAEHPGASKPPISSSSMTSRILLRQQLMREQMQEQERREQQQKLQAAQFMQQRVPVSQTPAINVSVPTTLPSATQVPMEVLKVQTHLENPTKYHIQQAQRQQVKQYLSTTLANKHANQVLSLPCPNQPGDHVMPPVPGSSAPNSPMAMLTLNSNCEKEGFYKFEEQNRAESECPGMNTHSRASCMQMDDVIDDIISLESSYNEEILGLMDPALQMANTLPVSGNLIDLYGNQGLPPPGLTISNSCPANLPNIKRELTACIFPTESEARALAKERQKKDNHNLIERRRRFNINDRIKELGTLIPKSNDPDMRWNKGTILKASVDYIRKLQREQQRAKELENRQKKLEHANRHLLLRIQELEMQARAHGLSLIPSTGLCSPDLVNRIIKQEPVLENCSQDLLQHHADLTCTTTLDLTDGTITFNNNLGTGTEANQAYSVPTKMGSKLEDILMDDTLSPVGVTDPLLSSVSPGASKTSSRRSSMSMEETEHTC

A-375 = experiment: MITF: Counter assay: A375 proliferation Measured in Cell-Based System Using Plate Reader - 2084-03_Inhibitor_Dose_DryPowder_Activity. [Related pubchem assays (depositor defined):AID488944]; format: functional; conditions: Homo sapiens
Cytochrome P450 1A2 = biological target: T2, Cytochrome P450 1A2 (Homo sapiens, UniProt P05177);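 also: PubChem cytochrome P450 panel assay, CYP1A2 panel member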
T2 sequence (P05177 whole entry): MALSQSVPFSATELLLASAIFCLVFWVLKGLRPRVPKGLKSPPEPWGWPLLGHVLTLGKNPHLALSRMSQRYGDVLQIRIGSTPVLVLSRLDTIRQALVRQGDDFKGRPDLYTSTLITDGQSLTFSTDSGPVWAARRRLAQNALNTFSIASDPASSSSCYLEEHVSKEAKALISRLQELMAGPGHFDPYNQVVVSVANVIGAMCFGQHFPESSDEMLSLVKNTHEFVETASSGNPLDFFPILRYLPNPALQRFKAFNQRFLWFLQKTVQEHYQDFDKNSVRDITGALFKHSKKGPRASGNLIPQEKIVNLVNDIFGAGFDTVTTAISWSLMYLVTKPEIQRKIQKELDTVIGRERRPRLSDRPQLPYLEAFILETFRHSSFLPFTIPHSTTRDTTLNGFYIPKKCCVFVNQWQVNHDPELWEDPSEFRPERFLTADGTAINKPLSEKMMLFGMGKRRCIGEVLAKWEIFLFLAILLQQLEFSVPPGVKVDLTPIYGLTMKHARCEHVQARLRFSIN

Cytochrome P450 3A4 = Cytochrome P450 3A4 (Homo sapiens, UniProt P08684);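 also: CYP3A4 tested as one member of a cytochrome P450 panel screen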
[2] = intracellular Trypanosoma cruzi inhibitors in host cells – cell-based, plate reader, cherry-pick samples, set 3, dose response (AID 651818); format: functional;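 also: compounds incubated with infected cells for about four days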
[3] = biological target: T3, Corticotropin-releasing factor receptor 2/Corticotropin-releasing factor-binding protein (Homo sapiens, UniProt P24387+Q13324); experiment: Dose Response confirmation of uHTS hits for small molecule antagonists of the CRF-binding protein and CRF-R2 receptor complex.; format: functional; conditions: read-out: IC50_Mean
T3 sequence (Q13324 whole entry): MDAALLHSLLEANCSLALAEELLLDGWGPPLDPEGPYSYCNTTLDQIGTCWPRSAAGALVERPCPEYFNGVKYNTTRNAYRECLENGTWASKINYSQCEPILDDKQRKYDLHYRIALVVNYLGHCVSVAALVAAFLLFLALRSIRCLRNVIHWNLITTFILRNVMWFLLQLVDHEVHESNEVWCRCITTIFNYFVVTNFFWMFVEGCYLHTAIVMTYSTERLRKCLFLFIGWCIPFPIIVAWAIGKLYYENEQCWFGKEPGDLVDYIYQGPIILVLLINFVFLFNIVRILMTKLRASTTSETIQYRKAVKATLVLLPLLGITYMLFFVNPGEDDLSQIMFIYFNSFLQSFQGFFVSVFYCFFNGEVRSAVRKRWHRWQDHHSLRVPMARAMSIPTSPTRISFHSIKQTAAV
T3 sequence (P24387 whole entry): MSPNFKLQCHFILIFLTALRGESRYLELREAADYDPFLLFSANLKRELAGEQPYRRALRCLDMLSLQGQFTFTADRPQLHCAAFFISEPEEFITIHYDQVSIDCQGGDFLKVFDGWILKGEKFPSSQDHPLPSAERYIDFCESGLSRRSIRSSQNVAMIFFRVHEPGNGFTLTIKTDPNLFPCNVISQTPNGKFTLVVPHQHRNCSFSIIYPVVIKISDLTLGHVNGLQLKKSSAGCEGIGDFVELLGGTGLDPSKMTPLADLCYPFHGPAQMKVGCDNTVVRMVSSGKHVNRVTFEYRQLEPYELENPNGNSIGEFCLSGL

[4] = biological target: T3, Corticotropin-releasing factor receptor 2/Corticotropin-releasing factor-binding protein; experiment: activators of CRF receptor 2 with binding protein – uHTS hits, confirmation (AID 602473); format: functional; conditions: read-out: EC50_Mean
[5] = CRF-BP/CRF-R2 complex antagonists, dose response, cell-based, uHTS hits, 384-well (AID 651639); format: functional, Homo sapiens; conditions: read-out: IC50_Mean
[6] = HEp-2 cell cytotoxicity, dose response, cytotoxicity control for RSV inhibitor project, HTS (AID 2410); format: functional; conditions: human respiratory syncytial virus
Insulin-degrading enzyme [7] = biological target: T4, Insulin-degrading enzyme (Homo sapiens, UniProt P14735); experiment: activators of recombinant IDE enzyme, dose response, counter-screen for IDE activator project, biochemical, fluorescence polarization (AID 588681)
T4 sequence (P14735 whole entry): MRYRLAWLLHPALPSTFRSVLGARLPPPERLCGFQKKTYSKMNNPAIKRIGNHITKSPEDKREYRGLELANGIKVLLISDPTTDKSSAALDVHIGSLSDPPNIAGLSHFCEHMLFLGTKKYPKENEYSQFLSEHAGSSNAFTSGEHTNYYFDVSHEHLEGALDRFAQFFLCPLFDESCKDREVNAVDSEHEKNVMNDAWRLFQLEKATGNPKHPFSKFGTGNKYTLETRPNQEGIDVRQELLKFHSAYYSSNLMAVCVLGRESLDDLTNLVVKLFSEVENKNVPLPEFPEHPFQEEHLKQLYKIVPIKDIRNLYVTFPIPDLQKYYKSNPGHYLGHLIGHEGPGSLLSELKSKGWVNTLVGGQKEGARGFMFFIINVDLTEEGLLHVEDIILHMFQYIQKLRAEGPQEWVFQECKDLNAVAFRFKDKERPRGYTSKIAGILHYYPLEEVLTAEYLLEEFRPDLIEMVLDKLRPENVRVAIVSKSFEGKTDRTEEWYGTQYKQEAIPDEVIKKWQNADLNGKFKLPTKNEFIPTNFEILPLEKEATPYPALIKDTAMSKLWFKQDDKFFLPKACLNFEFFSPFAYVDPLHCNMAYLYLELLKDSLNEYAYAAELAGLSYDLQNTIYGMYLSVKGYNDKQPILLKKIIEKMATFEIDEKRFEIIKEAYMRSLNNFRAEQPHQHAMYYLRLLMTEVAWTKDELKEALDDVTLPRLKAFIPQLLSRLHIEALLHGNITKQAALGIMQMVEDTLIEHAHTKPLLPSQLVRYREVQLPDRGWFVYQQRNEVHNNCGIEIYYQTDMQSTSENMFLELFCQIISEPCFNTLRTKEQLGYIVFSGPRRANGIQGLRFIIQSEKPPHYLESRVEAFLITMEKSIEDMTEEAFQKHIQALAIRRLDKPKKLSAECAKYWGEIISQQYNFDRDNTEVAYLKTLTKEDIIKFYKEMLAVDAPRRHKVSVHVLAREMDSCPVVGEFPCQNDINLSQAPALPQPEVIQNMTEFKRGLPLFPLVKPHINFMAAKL

Insulin-degrading enzyme [8] = biological target: T4, Insulin-degrading enzyme; experiment: activators of endogenous IDE in HEK cells, dose response, cell-based, fluorescence polarization (AID 588439); format: functional
HEK293 [9] = experiment: HEK cell cytotoxicity by LDH release, dose response, cytotoxicity control for IDE activator project, fluorescence, HEK cells (AID 588440); format: functional, cell-based; conditions: Homo sapiens;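 also: cytotoxicity by LDH release measuring loss of membrane integrity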
HEK293 [10] = experiment: optical interference in Abeta FP readout, dose response, artefact control for IDE activator project, biochemical, fluorescence polarization (AID 588442); format: functional, cell-based; conditions: Homo sapiens
Cytochrome P450 2C19 = Cytochrome P450 2C19 (Homo sapiens, UniProt P33261); experiment: Cytochrome panel assay with activity outcomes. Panel member name: p450-cyp2c19 Compounds with AC50 equal or less than 10 uM are considered active; format: functional; conditions: read-out: AC50
Escherichia coli = experiment: microbe, parasite or virus in culture
[11] = Luminescence Cell-Based Dose Response HTS to Identify Inhibitors of 5'UTR Stem-Loop Driven Prion Protein mRNA Translation in H4 Neuroglioblastoma Cells. [Related pubchem assays: 1827 (Project Summary), 1813 (Primary HTS)]; format: functional
[12] = inhibitors of SNCA 5'UTR-driven reporter translation, confirmation, H4 neuroglioma cells, luminescence (AID 1988); format: functional, cell-based
[13] = cytotoxicity in HEK-293T cells, dose response, cytotoxicity control for TCR NF-kB inhibitor project, luminescence, T-cell screen hits (AID 489026); format: functional, cell-based;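 also: cells exposed to compound about 14 hours before the viability readout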
[14] = biological target: T5, DNA repair and recombination protein RAD54-like (Homo sapiens, UniProt Q92698); experiment: inhibitors of human RAD54 branch migration, confirmation, biochemical, fluorescence, cherry-picked samples, dose series (AID 651657); format: functional
T5 sequence (Q92698 whole entry): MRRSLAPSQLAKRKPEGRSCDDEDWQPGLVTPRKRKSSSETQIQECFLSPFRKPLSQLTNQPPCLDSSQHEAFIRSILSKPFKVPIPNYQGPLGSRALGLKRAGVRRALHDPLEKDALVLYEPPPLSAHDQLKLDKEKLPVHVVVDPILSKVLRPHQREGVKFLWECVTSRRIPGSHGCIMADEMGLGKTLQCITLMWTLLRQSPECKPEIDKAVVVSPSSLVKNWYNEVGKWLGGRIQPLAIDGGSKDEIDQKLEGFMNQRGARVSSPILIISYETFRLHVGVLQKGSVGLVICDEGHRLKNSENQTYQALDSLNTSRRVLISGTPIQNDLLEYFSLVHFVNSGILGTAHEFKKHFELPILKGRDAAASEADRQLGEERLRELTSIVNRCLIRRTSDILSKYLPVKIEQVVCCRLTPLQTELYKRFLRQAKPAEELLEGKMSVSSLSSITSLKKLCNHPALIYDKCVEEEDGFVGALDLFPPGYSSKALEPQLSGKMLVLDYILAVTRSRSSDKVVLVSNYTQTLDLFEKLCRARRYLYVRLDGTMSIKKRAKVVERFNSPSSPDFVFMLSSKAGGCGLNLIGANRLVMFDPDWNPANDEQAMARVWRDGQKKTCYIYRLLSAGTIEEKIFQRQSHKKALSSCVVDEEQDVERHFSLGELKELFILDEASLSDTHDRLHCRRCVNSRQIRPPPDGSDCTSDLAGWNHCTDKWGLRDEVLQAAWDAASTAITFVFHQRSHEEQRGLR

Cytochrome P450 3A4, sequence (P08684 whole entry): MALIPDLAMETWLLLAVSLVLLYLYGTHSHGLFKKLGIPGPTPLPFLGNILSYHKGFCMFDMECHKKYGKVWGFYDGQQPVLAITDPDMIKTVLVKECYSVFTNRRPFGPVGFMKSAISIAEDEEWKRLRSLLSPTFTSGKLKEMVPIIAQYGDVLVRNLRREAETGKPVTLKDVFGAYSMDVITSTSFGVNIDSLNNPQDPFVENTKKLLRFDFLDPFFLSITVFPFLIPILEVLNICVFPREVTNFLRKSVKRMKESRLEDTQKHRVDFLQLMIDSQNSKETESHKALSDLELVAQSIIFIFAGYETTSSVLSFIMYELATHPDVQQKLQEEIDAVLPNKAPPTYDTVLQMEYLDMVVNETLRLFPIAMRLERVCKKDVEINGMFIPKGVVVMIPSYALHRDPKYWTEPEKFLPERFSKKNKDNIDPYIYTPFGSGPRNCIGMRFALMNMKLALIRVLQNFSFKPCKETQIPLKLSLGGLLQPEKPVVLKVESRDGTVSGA
Cytochrome P450 2C19, sequence (P33261 whole entry): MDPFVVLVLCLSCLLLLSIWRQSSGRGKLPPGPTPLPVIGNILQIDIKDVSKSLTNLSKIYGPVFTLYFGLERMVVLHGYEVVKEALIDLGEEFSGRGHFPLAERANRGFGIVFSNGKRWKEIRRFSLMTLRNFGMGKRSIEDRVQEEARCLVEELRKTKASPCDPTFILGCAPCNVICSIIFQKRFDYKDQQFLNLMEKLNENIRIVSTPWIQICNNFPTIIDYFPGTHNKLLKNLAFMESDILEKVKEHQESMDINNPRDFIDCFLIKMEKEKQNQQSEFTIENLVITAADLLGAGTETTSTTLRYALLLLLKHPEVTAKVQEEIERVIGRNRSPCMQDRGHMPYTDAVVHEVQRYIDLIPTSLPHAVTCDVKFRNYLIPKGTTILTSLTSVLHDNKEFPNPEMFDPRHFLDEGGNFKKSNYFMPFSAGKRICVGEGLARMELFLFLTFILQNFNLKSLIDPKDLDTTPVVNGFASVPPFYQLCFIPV

Compound: CCN1CCN(C2=C(NS(=O)(=O)c3ccc(C)cc3)C(=O)c3ccccc3C2=O)CC1
- AC50 [1]: 4.18 µM (active)
- AC50 (A-375): 36.6 µM (active)

Compound: Cc1ccc2nc(SCc3nnc(-c4ccccc4[N+](=O)[O-])o3)c(C#N)cc2c1
- AC50 (Cytochrome P450 1A2): 1.58 µM (inconclusive)
- AC50 (Cytochrome P450 3A4): inconclusive

Compound: C[C@H](CO)N1C[C@H](C)[C@H](CN(C)Cc2ccc(-c3ccccc3)cc2)Oc2ccc(NC(=O)Cc3cn(C)c4ccccc34)cc2C1=O
- AC50 [2]: 15 µM (active)

Compound: O=C(c1ccc([N+](=O)[O-])cc1)N(Cc1ccccc1)Cc1ccccc1
- IC50 [3]: 8.56 µM (active)
- EC50 [4]: > 53 µM (inactive)
- IC50 [5]: > 20 µM (inactive)

Compound: Nc1c(C(=O)CSc2nc3ccccc3o2)c(=O)[nH]c(=O)n1C1CC1
- CC50 [6]: 26.3 µM (active)
- EC50 (Insulin-degrading enzyme [7]): > 54.7 µM (inactive)
- EC50 (Insulin-degrading enzyme [8]): > 54.7 µM (inactive)
- IC50 (HEK293 [9]): > 89.2 µM (inactive)
- EC50 (HEK293 [10]): > 54.7 µM (inactive)

Compound: Cc1cc(NC(=O)CSc2nc3ccsc3c(=O)n2CCCCC(=O)O)no1
- AC50 (Cytochrome P450 2C19): 3.98 µM (inconclusive)
- AC50 (Cytochrome P450 3A4): inconclusive

Compound: O=C(CN(Cc1ccco1)C(=O)c1ccccc1F)Nc1ccccc1C(F)(F)F
- AC50 (Escherichia coli): 103 µM (active)

Compound: COc1cc(NC(=O)N2CCNC2=O)cc(C(=O)Nc2cccc(C(F)(F)F)c2)c1
- EC50 [11]: 9.79 µM (active)
- EC50 [12]: 6.31 µM (active)
- IC50 [13]: > 80 µM (inactive)
- EC50 (Insulin-degrading enzyme [7]): > 54.7 µM (inactive)
- EC50 (Insulin-degrading enzyme [8]): > 54.7 µM (inactive)
- IC50 (HEK293 [9]): > 89.2 µM (inactive)
- EC50 (HEK293 [10]): > 54.7 µM (inactive)

Compound: CN(C)CCCNc1nc(-c2ccc(Cl)cc2)nc2ccccc12
- AC50 [14]: 22.5 µM (active)
